In article PMC11527646, “Pharmacological blockade of the mast cell MRGPRX2 receptor supports investigation of its relevance in skin disorders” (Frontiers in Immunology, 2024):
Entries after “also recorded” stand apart in the source; their conditions may differ. Where two headings read alike, the source gives them in different places. Values belong to the molecule of their own block, whether it stands above or below them. Bridge positions count the residues as written; N and C are the ends. Peptide text beside a SMILES is read from it.

Columns and labels:
MRGPRX2 = molecular target: T1, MRGPRX2 (Homo sapiens, UniProt Q96LB1); test: LAD2 mast cell degranulation (β-hexosaminidase release), MRGPRX2 ligand-mediated; assay type: cell-based; set-up: human mast cells expressing endogenous MRGPRX2; endogenous in cells; […]
T1 sequence (Q96LB1 1-330): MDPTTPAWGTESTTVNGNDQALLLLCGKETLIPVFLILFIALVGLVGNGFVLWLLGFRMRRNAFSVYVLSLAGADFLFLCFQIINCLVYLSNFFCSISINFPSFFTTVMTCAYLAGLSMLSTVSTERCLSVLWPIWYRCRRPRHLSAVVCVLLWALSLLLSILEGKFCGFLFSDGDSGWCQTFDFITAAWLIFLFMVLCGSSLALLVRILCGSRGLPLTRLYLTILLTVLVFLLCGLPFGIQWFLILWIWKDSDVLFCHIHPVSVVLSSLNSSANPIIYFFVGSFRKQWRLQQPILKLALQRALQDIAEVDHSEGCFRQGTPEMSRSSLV
Description: Two different in vitro human mast cell systems were studied: (a) a human mast cell line, LAD2, established from a patient with mast cell sarcoma; and (b) mast cells freshly isolated from human skin. MRGPRX2 antagonist IC50 values were determined in the LAD2 mast cell degranulation assay using approximately EC80 concentrations for five different MRGPRX2 activating ligands (see Supplementary Figure 1 ).

human basophils = test: Histamine release from human blood basophils (buffy coats); assay type: cell-based; details: 0.2–25 μM; non-allergic or allergic donors, with or without anti-IgE pre-incubation
Description: Blood bank buffy coats were screened for reactions against 10 inhalant allergens (grass, birch, mugwort, cat, dog, horse, Dermatophagoides pteronyssinus, Dermatophagoides farinae, Cladosporium, and Alternaria) and 10 food allergens (milk, egg, wheat, peanut, hazelnut, kiwi, cod fish, shrimp, celeriac, and soy). Five buffy coats with histamine release > 30 ng/mL to any of the tested allergens and with a histamine release to blood with anti-IgE > 30 ng/mL were included as allergic donors. Further, five buffy coats with histamine release < 10 ng/mL to any of the above-mentioned allergens and with a histamine release to blood with anti-IgE > 25 ng/mL were included as non-allergic donors.
The buffy coats were pre-incubated for 30 min at 37°C with either buffer or anti-human IgE in concentrations ranging from 0.04 µg/mL to 5 µg/mL. […] Following pre-incubation with anti-IgE and incubation with SP, released histamine was quantified as previously described ([14]). Briefly, histamine was bound to a glass fiber matrix at the bottom of microtiter plates and after a series of wash steps coupled to ortho-phtaldialdehyde before being detected fluorometrically in the Histareader™ 501 (RefLab ApS, Copenhagen, Denmark). […]
Anti-IgE pre-stimulation. Histamine release measured in blood samples pre-incubated with various concentrations of anti-lgE for 30 mins, followed by 1 hour incubation with various […]

EC50 (MRGPRX2; representative dose response curves, read-out: LAD2 mast cell degranulation agonist EC50): 67 nM
SMILES: C[C@@H](O)[C@@H]1NC(=O)[C@H](CCCCN)NC(=O)[C@H](Cc2c[nH]c3ccccc23)NC(=O)[C@H](Cc2ccccc2)NC(=O)[C@H](Cc2ccccc2)NC(=O)[C@H](CC(N)=O)NC(=O)[C@H](CCCCN)NC(=O)[C@@H](NC(=O)[C@@H]2CCCN2)CSSC[C@@H](C(=O)N[C@@H](CCCCN)C(=O)O)NC(=O)[C@H](CO)NC(=O)[C@H](CO)NC(=O)[C@H](Cc2ccccc2)NC1=O [Cortistatin 14, reference compound] (H-PCKNFFWKTFSSCK-OH; disulfide 2-13; N-terminus and C-terminus assumed)

SMILES: CC[C@H](C)[C@H](NC(=O)CNC(=O)[C@H](CC(=O)O)NC(=O)[C@H](CO)NC(=O)[C@@H](N)Cc1cnc[nH]1)C(=O)N[C@@H](Cc1ccccc1)C(=O)N[C@H](C(=O)N[C@@H](CC(=O)O)C(=O)N[C@@H](CO)C(=O)N[C@@H](Cc1ccc(O)cc1)C(=O)N[C@@H](CO)C(=O)N[C@@H](CCCNC(=N)N)C(=O)N[C@@H](Cc1ccc(O)cc1)C(=O)N[C@@H](CCCNC(=N)N)C(=O)N[C@@H](CCCCN)C(=O)N[C@@H](CCC(N)=O)C(=O)N[C@@H](CCSC)C(=O)N[C@@H](C)C(=O)N[C@H](C(=O)N[C@@H](CCCCN)C(=O)N[C@@H](CCCCN)C(=O)N[C@@H](Cc1ccc(O)cc1)C(=O)N[C@@H](CC(C)C)C(=O)N[C@@H](C)C(=O)N[C@@H](C)C(=O)N[C@H](C(=O)N[C@@H](CC(C)C)C(N)=O)C(C)C)C(C)C)[C@@H](C)O [PACAP-27, reference compound]
EC50 (MRGPRX2): 218 nM

SMILES: CSCC[C@H](NC(=O)[C@H](CC(C)C)NC(=O)CNC(=O)[C@H](Cc1ccccc1)NC(=O)[C@H](Cc1ccccc1)NC(=O)[C@H](CCC(N)=O)NC(=O)[C@H](CCC(N)=O)NC(=O)[C@@H]1CCCN1C(=O)[C@H](CCCCN)NC(=O)[C@@H]1CCCN1C(=O)[C@@H](N)CCCN=C(N)N)C(N)=O [Substance P]
Histamine release response of basophils (human basophils): no SP response could be detected

SMILES: COc1ccc(-n2nnnc2C(F)(F)F)cc1CN[C@H]1CCCN[C@H]1c1ccccc1 [vofopitant, reference compound]
Influence on Substance P-mediated mast cell degranulation (MRGPRX2; Substance P 1 μM, β-hexosaminidase release, n = 8): has no influence; also recorded: unaltered
